target: T1, Human HIF-PHD2 (Homo sapiens, UniProt Q9GZT9); assay: Inhibition of the hydroxylation of a HIF peptide by PHD2 (time resolved fluorescence, 384-well); format: biochemical; details: FLAG-tagged full length PHD2; 0.2 μM 2-oxoglutarate, 0.5 μM HIF-1α peptide; 45 minutes at room temperature; read-out: Human HIF-PHD2 IC50
T1 construct: FLAG-tagged full length PHD2 expressed in and purified from baculovirus-infected Sf9 cells; FLAG; made in house; host or cells: baculovirus-infected Sf9 cells
T1 sequence (Q9GZT9 whole entry): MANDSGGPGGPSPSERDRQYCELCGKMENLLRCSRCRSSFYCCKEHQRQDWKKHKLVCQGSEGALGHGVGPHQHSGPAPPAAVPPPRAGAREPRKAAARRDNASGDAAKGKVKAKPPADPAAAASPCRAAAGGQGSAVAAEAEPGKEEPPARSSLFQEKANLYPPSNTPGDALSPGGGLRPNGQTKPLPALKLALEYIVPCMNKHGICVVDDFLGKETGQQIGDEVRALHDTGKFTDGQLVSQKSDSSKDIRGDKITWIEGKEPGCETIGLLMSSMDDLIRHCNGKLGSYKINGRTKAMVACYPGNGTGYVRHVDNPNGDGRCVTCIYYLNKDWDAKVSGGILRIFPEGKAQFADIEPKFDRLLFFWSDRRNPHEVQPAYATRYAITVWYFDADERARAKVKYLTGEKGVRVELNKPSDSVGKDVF

IC50 [nM] | SMILES
0.5 | N#Cc1ccc(C2Cn3c(=O)c(C(=O)NCC(=O)O)c(O)c4cc(C#N)cc(c43)O2)cc1 (centres unmarked) [Example 52, 2-(9-Cyano-2-(4-cyanophenyl)-7-hydroxy-5-oxo-3,5-dihydro-2H-[1,4]oxazino[2,3,4-ij]quinoline-6-carboxamido)acetic acid]
3.5 | O=C(O)CNC(=O)c1c(O)c2cc(Br)cc3c2n(c1=O)CC(c1ccc(Br)cc1)O3 (centres unmarked) [Example 53, 2-(9-Bromo-2-(4-bromophenyl)-7-hydroxy-5-oxo-3,5-dihydro-2H-[1,4]oxazino[2,3,4-ij]quinoline-6-carboxamido)acetic acid]
1.1 | N#Cc1ccc(C2Cn3c(=O)c(C(=O)NCC(=O)O)c(O)c4c(C#N)ccc(c43)O2)cc1 (centres unmarked) [Example 54, 2-(8-Cyano-2-(4-cyanophenyl)-7-hydroxy-5-oxo-3,5-dihydro-2H-[1,4]oxazino[2,3,4-ij]quinoline-6-carboxamido)acetic acid]
2.5 | O=C(O)CNC(=O)c1c(O)c2c(Br)ccc3c2n(c1=O)CC(c1ccc(Br)cc1)O3 (centres unmarked) [Example 55, 2-(8-Bromo-2-(4-bromophenyl)-7-hydroxy-5-oxo-3,5-dihydro-2H-[1,4]oxazino[2,3,4-ij]quinoline-6-carboxamido)acetic acid]
0.6 | N#Cc1ccc(C2Cn3c(=O)c(C(=O)NCC(=O)O)c(O)c4ccc(C#N)c(c43)O2)cc1 (centres unmarked) [Example 56, 2-(10-Cyano-2-(4-cyanophenyl)-7-hydroxy-5-oxo-3,5-dihydro-2H-[1,4]oxazino[2,3,4-ij]quinoline-6-carboxamido)acetic acid]
2.7 | O=C(O)CNC(=O)c1c(O)c2ccc(Br)c3c2n(c1=O)CC(c1ccc(Br)cc1)O3 (centres unmarked) [Example 57, 2-(10-Bromo-2-(4-bromophenyl)-7-hydroxy-5-oxo-3,5-dihydro-2H-[1,4]oxazino[2,3,4-ij]quinoline-6-carboxamido)acetic acid]
1 | O=C(O)CNC(=O)c1c(O)c2cccc3c2n(c1=O)CC(c1ccc(C(F)(F)F)cc1)[S+]3[O-] (centres unmarked) [Example 59, 2-(7-Hydroxy-1-oxido-5-oxo-2-(4-(trifluoromethyl)phenyl)-3,5-dihydro-2H-[1,4]thiazino[2,3,4-ij]quinoline-6-carboxamido)acetic acid]
0.8 | O=C(O)CNC(=O)c1c(O)c2cccc3c2n(c1=O)CC(c1ccc(C(F)(F)F)cc1)S3(=O)=O (centres unmarked) [Example 60, 2-(7-Hydroxy-1,1-dioxido-5-oxo-2-(4-(trifluoromethyl)phenyl)-3,5-dihydro-2H-[1,4]thiazino[2,3,4-ij]quinoline-6-carboxamido)acetic acid]
13 | Cc1ccc2c3c1c(O)c(C(=O)NCC(=O)O)c(=O)n3CC(c1ccc(C(F)(F)F)cc1)O2 (centres unmarked) [Example 63, 2-(7-Hydroxy-8-methyl-5-oxo-2-(4-(trifluoromethyl)phenyl)-3,5-dihydro-2H-[1,4]oxazino[2,3,4-ij]quinoline-6-carboxamido)acetic acid]
4.5 | O=C(O)CNC(=O)c1c(O)c2cccc3c2n(c1=O)CC(c1ccc(C(F)(F)F)cc1)N3 (centres unmarked) [Example 64, 2-(7-Hydroxy-5-oxo-2-(4-(trifluoromethyl)phenyl)-1,2,3,5-tetrahydropyrido[1,2,3-de]quinoxaline-6-carboxamido)acetic acid]
34 | CN1c2cccc3c(O)c(C(=O)NCC(=O)O)c(=O)n(c23)CC1c1ccc(C(F)(F)F)cc1 (centres unmarked) [Example 65, 2-(7-Hydroxy-1-methyl-5-oxo-2-(4-(trifluoromethyl)phenyl)-1,2,3,5-tetrahydropyrido[1,2,3-de]quinoxaline-6-carboxamido)acetic acid]
5 | O=C(O)CNC(=O)c1c(O)c2cc(F)cc3c2n(c1=O)CC(c1ccc(C(F)(F)F)cc1)O3 (centres unmarked) [Example 66, 2-(9-Fluoro-7-hydroxy-5-oxo-2-(4-(trifluoromethyl)phenyl)-3,5-dihydro-2H-[1,4]oxazino[2,3,4-ij]quinoline-6-carboxamido)acetic acid]
4.3 | O=C(O)CNC(=O)c1c(O)c2ccc(F)c3c2n(c1=O)CC(c1ccc(C(F)(F)F)cc1)O3 (centres unmarked) [Example 67, 2-(10-Fluoro-7-hydroxy-5-oxo-2-(4-(trifluoromethyl)phenyl)-3,5-dihydro-2H-[1,4]oxazino[2,3,4-ij]quinoline-6-carboxamido)acetic acid]
1.4 | CS(=O)(=O)c1ccc(C2Cn3c(=O)c(C(=O)NCC(=O)O)c(O)c4ccc(C(F)(F)F)c(c43)O2)cc1 (centres unmarked) [Example 76, 2-(7-Hydroxy-2-(4-(methylsulfonyl)phenyl)-5-oxo-10-(trifluoromethyl)-3,5-dihydro-2H-[1,4]oxazino[2,3,4-ij]quinoline-6-carboxamido)acetic acid]
4 | COc1ccc2c3c1c(O)c(C(=O)NCC(=O)O)c(=O)n3CC(c1ccc(C(F)(F)F)cc1)O2 (centres unmarked) [Example 79, 2-(7-hydroxy-8-methoxy-5-oxo-2-(4-(trifluoromethyl)phenyl)-3,5-dihydro-2H-[1,4]oxazino[2,3,4-ij]quinoline-6-carboxamido)acetic acid]
12 | O=C(O)CNC(=O)c1c(O)c2c(O)ccc3c2n(c1=O)CC(c1ccc(C(F)(F)F)cc1)O3 (centres unmarked) [Example 80, 2-(7,8-dihydroxy-5-oxo-2-(4-(trifluoromethyl)phenyl)-3,5-dihydro-2H-[1,4]oxazino[2,3,4-ij]quinoline-6-carboxamido)acetic acid]
2.9 | COc1cc2c3c(c1)c(O)c(C(=O)NCC(=O)O)c(=O)n3CC(c1ccc(C(F)(F)F)cc1)O2 (centres unmarked) [Example 81, 2-(7-Hydroxy-9-methoxy-5-oxo-2-(4-(trifluoromethyl)phenyl)-3,5-dihydro-2H-[1,4]oxazino[2,3,4-ij]quinoline-6-carboxamido)acetic acid]
2.7 | O=C(O)CNC(=O)c1c(O)c2cc(O)cc3c2n(c1=O)CC(c1ccc(C(F)(F)F)cc1)O3 (centres unmarked) [Example 82, 2-(7,9-Dihydroxy-5-oxo-2-(4-(trifluoromethyl)phenyl)-3,5-dihydro-2H-[1,4]oxazino[2,3,4-ij]quinoline-6-carboxamido)acetic acid]
5 | O=C(O)CNC(=O)c1c(O)c2cccc3c2n(c1=O)CC(c1ccc(C(F)(F)F)nc1)C3 (centres unmarked) [Example 83, 2-(1-Hydroxy-3-oxo-6-(6-(trifluoromethyl)pyridin-3-yl)-3,5,6,7-tetrahydropyrido[3,2,1-ij]quinoline-2-carboxamido)acetic acid]
0.9 | N#Cc1cc2c3c(c1)c(O)c(C(=O)NCC(=O)O)c(=O)n3CC(c1ccc(C(F)(F)F)nc1)C2 (centres unmarked) [Example 84, 2-(9-cyano-1-hydroxy-3-oxo-6-(6-(trifluoromethyl)pyridin-3-yl)-3,5,6,7-tetrahydropyrido[3,2,1-ij]quinoline-2-carboxamido)acetic acid]
0.9 | CS(=O)(=O)c1cc2c3c(c1)c(O)c(C(=O)NCC(=O)O)c(=O)n3CC(c1ccc(C(F)(F)F)nc1)C2 (centres unmarked) [Example 85, 2-(1-hydroxy-9-(methylsulfonyl)-3-oxo-6-(6-(trifluoromethyl)pyridin-3-yl)-3,5,6,7-tetrahydropyrido[3,2,1-ij]quinoline-2-carboxamido)acetic acid]
0.839 | N#Cc1cc2c3c(c1)c(O)c(C(=O)NCC(=O)O)c(=O)n3CC(c1ccc(C(F)(F)F)cc1)[S+]2[O-] (centres unmarked) [Example 91, 2-(9-Cyano-7-hydroxy-1-oxido-5-oxo-2-(4-(trifluoromethyl)phenyl)-3,5-dihydro-2H-[1,4]thiazino[2,3,4-ij]quinoline-6-carboxamido)acetic acid]
3.1 | N#Cc1cc2c3c(c1)c(O)c(C(=O)NCC(=O)O)c(=O)n3C(c1ccc(C(F)(F)F)cc1)CN2 (centres unmarked) [Example 92, 2-(9-Cyano-7-hydroxy-5-oxo-3-(4-(trifluoromethyl)phenyl)-1,2,3,5-tetrahydropyrido[1,2,3-de]quinoxaline-6-carboxamido)acetic acid]
0.8 | N#Cc1ccc2c3c1c(O)c(C(=O)NCC(=O)O)c(=O)n3CC(c1ccc(C(F)(F)F)cc1)N2 (centres unmarked) [Example 94, 2-(8-Cyano-7-hydroxy-5-oxo-2-(4-(trifluoromethyl)phenyl)-1,2,3,5-tetrahydropyrido[1,2,3-de]quinoxaline-6-carboxamido)acetic acid]
5.5 | CN1CC(c2ccc(C(F)(F)F)cc2)n2c(=O)c(C(=O)NCC(=O)O)c(O)c3cc(C#N)cc1c32 (centres unmarked) [Example 95, 2-(9-Cyano-7-hydroxy-1-methyl-5-oxo-3-(4-(trifluoromethyl)phenyl)-1,2,3,5-tetrahydropyrido[1,2,3-de]quinoxaline-6-carboxamido)acetic acid]
3 | CN1c2cc(C#N)cc3c(O)c(C(=O)NCC(=O)O)c(=O)n(c23)CC1c1ccc(C(F)(F)F)cc1 (centres unmarked) [Example 96, 2-(9-Cyano-7-hydroxy-1-methyl-5-oxo-2-(4-(trifluoromethyl)phenyl)-1,2,3,5-tetrahydropyrido[1,2,3-de]quinoxaline-6-carboxamido)acetic acid]
1.5 | N#Cc1ccc2c3c1c(O)c(C(=O)NCC(=O)O)c(=O)n3CC(c1ccc(C(F)(F)F)cc1)S2 (centres unmarked) [Example 97, 2-(8-Cyano-7-hydroxy-5-oxo-2-(4-(trifluoromethyl)phenyl)-3,5-dihydro-2H-[1,4]thiazino[2,3,4-ij]quinoline-6-carboxamido)acetic acid]
13.7 | O=C(O)CNC(=O)c1c(O)c2c(F)ccc3c2n(c1=O)C(c1ccc(C(F)(F)F)cc1)CS3 (centres unmarked) [Example 98, 2-(8-Fluoro-7-hydroxy-5-oxo-3-(4-(trifluoromethyl)phenyl)-3,5-dihydro-2H-[1,4]thiazino[2,3,4-ij]quinoline-6-carboxamido)acetic acid]

same assay, conditions: FLAG-tagged full length PHD2; 0.2 μM 2-oxoglutarate, 0.5 μM HIF-1α peptide; 45 minutes at room temperature; read-out: MS m/z (M + 1)+ and human HIF-PHD2 IC50

IC50 [nM] | SMILES
1 | O=C(O)CNC(=O)c1c(O)c2cccc3c2n(c1=O)CC(c1ccc(C(F)(F)F)cc1)[S+]3[O-] (centres unmarked) [Example 61, 2-(7-hydroxy-1-oxido-5-oxo-2-(4-(trifluoromethyl)phenyl)-3,5-dihydro-2H-[1,4]thiazino[2,3,4-ij]quinoline-6-carboxamido)acetic acid]

Source: US9969752B2, “Inhibitors of HIF prolyl hydroxylase” (MERCK SHARP & DOHME CORP., priority 2014, dated 2018)
